Measurements reported in article PMC12434308 (Nature chemical biology, 2021).

Tests used:
ACE2 = assay: anti-ACE2 antibody staining by flow cytometry; type: cell-based, human; conditions: ACE2+ HEK293 cells, 3FNeu5Ac treatment
ACE2+ HEK293 cells [1] = assay: fluorescent SARS-CoV-2 RBD trimer binding by flow cytometry; type: cell-based
Vero-E6 cells = type: cell-based
[2] = test system: SARS-CoV-2 pseudotyped lentivirus; type: cell-based
ACE2+ HEK293 cells [3] = assay: SNA and PNA lectin staining by flow cytometry; type: cell-based; conditions: 3 d treatment, 300 μM
control lentivirus = type: cell-based
SARS-CoV-2 S1 protein = conditions: model sialylated species; cited from earlier work
SARS-CoV-2 RBD [4] = molecular target: T1, SARS-CoV-2 RBD (Severe acute respiratory syndrome coronavirus 2, UniProt P0DTC2)
RBD = conditions: read-out: Kd for the RBD; glycan immobilized, average MW 15,700 Da; cited from earlier work
[5] = test system: ferret lung tissue sections
SARS-CoV-2 RBD [6] = molecular target: T1, SARS-CoV-2 RBD; remark: listed apart in the source
SARS-CoV-2 S protein = SARS-CoV-2 S protein (Severe acute respiratory syndrome coronavirus 2, UniProt P0DTC2)

For `CC(=O)N[C@H]1[C@H]([C@H](O)[C@H](O)CO)O[C@](O)(C(=O)O)C(F)[C@@H]1O` (some centres unmarked) [3FNeu5Ac], the “ACE2 levels after ST inhibition” value (ACE2) was “did not alter”, the “RBD binding to treated cells” value (ACE2+ HEK293 cells [1]; 300 μM, 72 h) was “consistently decreased” and the “RBD binding to treated Vero-E6 cells” value (Vero-E6 cells) was “decrease in RBD binding”. For the same compound, the “decrease in pseudotyped lentivirus infectivity” value [2] was 30–40%, the “Sia on the cell surface (SNA and PNA staining)” value (ACE2+ HEK293 cells [3]) was “substantially decreased” and the “viral entry of control lentivirus” value (control lentivirus) was “no differences were observed”.

In the case of `CC(=O)N[C@H]1[C@H]([C@H](O)[C@H](O)CO)O[C@@](O[C@H]2[C@@H](O)[C@@H](CO)O[C@@H](O[C@H]3[C@H](O)[C@@H](O)C(O)O[C@@H]3CO)[C@@H]2O)(C(=O)O)C[C@@H]1O` (some centres unmarked) [3′-sialyllactose], the Kd (SARS-CoV-2 S1 protein) is listed as “millimolar”.

For `CCCCCCCCC(=O)N[C@H](CN1CCCC1)[C@H](O)c1ccc2c(c1)OCCO2` [GENZ-123346], the “SARS-CoV-2 RBD binding to glycolipid-depleted cells” value (ACE2+ HEK293 cells [1]; 5 μM, 48 h) was “significant decreases”, the “pseudotyped viral infection of glycolipid-depleted cells” value [2] was “significant decreases” and the pseudoviral entry [2] was “failed to elicit an effect”. For the same compound, the “infection of control lentivirus” value (control lentivirus) was “did not show differences”.

For `COC1(C(=O)O)CC(O)C(NC(C)=O)C(C(O)C(O)CO)O1` (stereo not drawn) [MeαNeu5Ac, methyl α-sialoside], the “relative abundance of released 69 on addition of competitor” value (SARS-CoV-2 RBD [4]) was “qualitatively similar results as 41”.

With “Galα(1-3)[Fucα(1-2)]Galβ(1-4)[Fucα(1-3)]Glc [glycan 87]” the “ligand released from RBD in presence of excess MeαNeu5Ac” value (SARS-CoV-2 RBD [4]) was “most abundant ligand released”.

In the case of heparin, the Kd (RBD) is given as 1000 nM.

For neuraminidase from Vibrio cholerae, the “decrease of SARS-CoV-2 RBD binding” value [5] was roughly 80% and the “decrease of SARS-CoV-2 RBD binding” value (Vero-E6 cells) was roughly 80%.

For “α-D-Neu5Ac-(2→3)-β-D-Gal-(1→3)-β-D-GalNAc-(1→4)-[α-D-Neu5Ac-(2→3)]-β-D-Gal-(1→4)-β-D-Glc-ceramide [GD1a]”, the “ganglioside ions released from RBD complexes (nanodisc)” value (“ganglioside ions released” below) (SARS-CoV-2 RBD [6]) was “no signals”.

For “α-D-Neu5Ac-(2→3)-β-D-Gal-(1→4)-β-D-Glc-ceramide [GM3]”, the “ganglioside ions released” value (SARS-CoV-2 RBD [6]) was “measured”.

In the case of α-Gal-Lewis X [glycan 50], the “relative CaR-ESI-MS response of ligand released from S protein” value (SARS-CoV-2 S protein) is reported as “enhanced”.

In the case of “α-Neu5Ac-(2→3)-β-D-Gal-(1→3)-β-D-GalNAc-(1→4)-[α-Neu5Ac-(2→8)-α-Neu5Ac-(2→3)]-β-D-Gal-(1→4)-β-D-Glc-ceramide [GT1b]”, the “ganglioside ions released” value (SARS-CoV-2 RBD [6]) is reported as “no signals”.

With “β-D-Gal-(1→3)-β-D-GalNAc-(1→4)-[α-D-Neu5Ac-(2→3)]-β-D-Gal-(1→4)-β-D-Glc-ceramide [GM1]” the “ganglioside ions released” value (SARS-CoV-2 RBD [6]) was “measured”.

In the case of “β-D-GalNAc-(1→4)-[α-D-Neu5Ac-(2→3)]-β-D-Gal-(1→4)-β-D-Glc-ceramide [GM2]”, the “ganglioside ions released” value (SARS-CoV-2 RBD [6]) is reported as “measured”.

For “β-D-GalNAc-(1→4)-[α-D-Neu5Ac-(2→8)-α-D-Neu5Ac-(2→3)]-β-D-Gal-(1→4)-β-D-Glc-ceramide [GD2]”, the “ganglioside ions released” value (SARS-CoV-2 RBD [6]) was “no signals”.
